Marks after values point to notes of the source that are not given here.
What was measured:
Type in all cases: in vivo, Sprague-Dawley (SD) rats
[1] = system: obesity rats induced by high-fat feed; assay: Liver lipid extraction and determination (TC, TG); settings: high-fat diet rats; Monascinol 0.31 mg/kg BW daily by tube feeding (human 3 mg/day), 8 weeks
Protocol: (§1) Forty male rats of 8-week-old Sprague-Dawley (SD) strain were purchased from BioLASCO (Taipei, Taiwan) for the experiment. The growing environment was one with constant indoor temperature (25±1° C.), relative humidity of 60%, and 12 hours of cyclic light (light time from 8:00 to 20:00). The rats were acclimatized for four days before the formal experiment, then reared in 5 groups of 8 rats each for 8 weeks and were fed in an ad libitum feeding manner, and their body weight, food intake and water intake were measured at regular intervals during the experimental period.
(§2) The experimental rats were divided into groups, and the obesity rats were induced by high-fat feed as follows (Please refer to Table 1). • i. NOR Group: Normal animal group. • ii. HF Group: High-fat control group including obesity rats induced by high-fat feed. • iii. […]
(§3) 0.1 g of liver tissue or fecal powder was weighed and 1 mL of chloroform:methanol (2:1, v/v volume ratio) was added, and homogenized with a tissue homogenizer and centrifuged to obtain the supernatant. […] The TC concentration was analyzed using a commercially available biochemical reagent (Model No. BXC 0261, Fortress), and the TG concentration was analyzed using a commercially available biochemical reagent (Model No. BXC 0271, Fortress), as per the kit instruction manual.

[2] = system: obesity rats induced by high-fat feed; assay: Fecal lipid extraction and determination (TC, TG); settings: high-fat diet rats; Monascinol 0.31 mg/kg BW daily by tube feeding (human 3 mg/day), 8 weeks
Protocol: as §1, §2, §3

[3] = system: obesity rats induced by high-fat feed; assay: Body weight change of obesity rats induced by high-fat feed; settings: high-fat diet rats, Monascinol 0.31 mg/kg BW daily by tube feeding (human 3 mg/day), 8 weeks
Protocol: • (1) Msol Group: This group used Monascinol with an adult daily dosage of 3 mg/day. • (2) RL and RH Groups: These groups used the red yeast rice obtained by fermenting the Monascus pilosus fermented rice of the present invention and the red yeast rice contained 3 mg/g of Monascinol, wherein the adult daily dosage of the red yeast rice for the RL and RH groups were 0.5 g/day and 2 g/day respectively. 2. Experiment on Evaluation of Adjustment of Body Fat Composition
as §1
The feeding dosage was calculated according to the method of “Estimating the maximum safe starting dose in initial clinical trials for therapeutics in adult healthy volunteers” published by the U.S. Food and Drug Administration in 2005. Provided that an adult of 60 kg was used as the base, the principle of dosage conversion is 6.2 times of the recommended daily intake of mg/kg bw/day for human as the recommended daily intake of mg/kg bw/day for rat, and the rat group is configured and fed with the dosage as shown in Table 1. The formulae are as follows: Dose intake per kilogram of body weight in rats=Recommended intake in humans÷Body weight 60 kg×6.2, and thus the daily dose intake per kilogram of body weight in rats can be calculated.
The experimental rats were divided into groups, and the obesity rats were induced by high-fat feed as follows (Please refer to Table 1). • i. NOR Group: Normal animal group. • ii. […]
The body weight of rats was measured weekly and the changes in body weight of each group were compared at the end of the experiment.

[4] = system: obesity rats induced by high-fat feed; assay: Serum biochemical analysis (TC, TG); settings: high-fat diet rats, Monascinol 0.31 mg/kg BW daily by tube feeding (human 3 mg/day), 8 weeks
Protocol: as §1
(§4) The experimental rats were divided into groups, and the obesity rats were induced by high-fat feed as follows (Please refer to Table 1). • i. NOR Group: Normal animal group. • ii. HF Group: High-fat control group including obesity rats induced by high-fat feed. • iii. RL Group: Obesity rats induced by high-fat feed and tube-fed daily with red yeast rice powder, equivalent to 0.5 g of red yeast rice containing 1.5 mg of Monascinol per day consumed by an adult rat of 60 kg. • iv. […]
The test was performed using a biochemical autoanalyzer (Model No.: Beckman-700, purchased from Fullerton, California, USA). The items measured were Total Cholesterol (TC), and Triglyceride (TG).

[5] = system: gut microbiota of high-fat diet rats; assay: Gut microbiota fecal analysis (full-length 16S sequencing)
Protocol: About 0.3 g of fresh feces was collected into 1.5 mL of eppendorf before fasting for sacrifice, sealed with parafilm, stored at −80° C. for analysis, and sent to BioTools (New Taipei, Taiwan) for analysis.
Total genomic DNA (QIAamp PowerFecal DNA, Qiagen) was extracted from the samples. The DNA concentration was determined by Qubit 4.0 fluorometer (Thermo Scientific) and adjusted to 1 ng/μL. The full-length 16S gene (V1-V9 region) was amplified by 16S gene-specific primers with barcodes (Forward primer 1): 5′ Phos/GCATC-16-base barcode-Sequence ID Number 11, Reverse primer 1: 5′Phos/GCATC-16-base barcode-Sequence ID Number 12). PCR reactions were performed using KAPA HiFi HotStart ReadyMix (Roche): at 95° C. for 3 min. and 20-27 cycles (Sample Dependency): at 95° C. for 30 sec., at 57° C. for 30 sec., at 72° C. for 60 sec; at 72° C. for 5 min., and finally stored at 4° C. for future use. PCR products were monitored on 1% agarose gels. Samples of approximately 1500 bp bright bands were selected and purified by using AMPure PB Beads for SMRTbell library preparation.
SMRTbell libraries were prepared based on full-length 16S gene amplifications with barcoded primers used in the Multiplex SMRTbell Library Preparation and Sequencing Program (Pacbio). Sequencing was performed in circular consensus sequencing (CCS) mode on a PacBio Sequel Ile instrument, generating HiFi read with a Phred Scale=30. The DNA to be tested will be sequenced iteratively. By comparing the results of the reverse sequencing, sequencing errors will be corrected, ultimately achieving a high accuracy of >99.9% (QV30).
Information Analysis (Sequential data processing/denoising and species annotation) The sample data from the downstream data were sorted out according to the Barcode sequence and PCR amplification primer sequences. After the removal of the barcodes and primer sequences, the data were imported into QIIME2 (v2019.7.0; https://qiime2.org/) and all the sequences of the samples were saved into one corresponding object Artifacts. QIIME2 cutadapt was used to remove the amplicon variant primers (forward primer 2: Sequence ID Number 13; reverse primer 2: Sequence ID Number 14), and the sequence with the primers removed will be used as QIIME2 DADA2. Input Reads.
The denoising analysis began with the filtering of sequences, setting each sequence to be cropped to a specified length (forward reads: 280 bp; reverse reads: 220 bp) and setting the MaxEE (forward reads: 2; reverse reads: 2) parameter as the maximum number of expected error bases allowed for the sequence. This was followed by denoising, the core algorithm of DADA2 utilizing the information of sequence abundance, quality score, and relationships between sequences to correct the […] of sequencing errors and to infer the real sequences. Splicing was performed after denoising each end of the sequence (minimum overlap length 20 bp; overlap region was not allowed to be mismatched). Finally, the spliced sequences are subjected to chimera removal by comparing the sequences with higher abundance in the sample. If a sequence with low abundance is similar to several sequences, it can be recognized as a chimera and removed from the sample. Sequences after denoising analysis were used as representative sequences of Amplicon Sequence Variants (ASVs) and can be obtained from the ASV table for subsequent species annotation. The QIIME2 feature-classifier (v2019.7.0; https://qiime2.org/) was used to select machine learning-based classification methods and to train naïve bayes classifiers for different databases and specific variability regions. The taxonomic annotation of ASVs represented by this classifier yields taxonomic information and the composition of the microbial phyla of each sample at each classification level including kingdom, phylum, class, order, family, genus, and species.
Welch's t-test was analyzed by STAMP (v2.1.3), and the intergroup species differences were plotted as bar charts. […]

[6] = system: obesity rats induced by high-fat feed; assay: Liver weight and liver/body weight of high-fat diet rats; settings: Monascinol 0.31 mg/kg BW daily by tube feeding (human 3 mg/day), 8 weeks
Protocol: as §1
as §4, with “iv. RH Group: Obesity rats induced by high-fat feed and tube-fed red yeast rice powder daily, equivalent to 2 g of red yeast rice containing 6 mg of Monascinol per day consumed by an adult of 60 kg. • v.” for “iv.”

[7] = system: obesity rats induced by high-fat feed; assay: Body fat mass and body fat rate (perirenal and epididymal fatty tissues); settings: high-fat diet rats, Monascinol 0.31 mg/kg BW daily by tube feeding (human 3 mg/day), 8 weeks
Protocol: as §1, §4
At the time of sacrifice, fatty tissues surrounding the kidneys and the epididymis (perirenal and epididymal fatty tissues) of the experimental animals were removed, and the their weights were measured and recorded. The body fat rate was calculated as follows: […]

[8] = FIGS. 9A-9D, high-fat diet rats
[9] = order level, FIG. 7C, high-fat diet rats
[10] = phylum level, FIG. 7A, high-fat diet rats vs HF group

Monascinol [Msol]
Liver TC [1]: 5.05 ± 0.54^a mg/g | Liver TG [1]: 14.40 ± 1.57^a mg/g | Feces TC [2]: 46.22 ± 4.72^c mg/g | Feces TG [2]: 61.27 4.80^cd mg/g | Weight before Sacrifice ([3]; after fasting): 488.5 ± 31.7^a g | Weight 8 week [3]: 512.1 ± 31.1^a g | Weight gain [3]: 220.8 ± 38.8^a g | TC [4]: 65.0 ± 10.4^b mg/dL | TG [4]: 61.7 ± 10.7^a mg/dL | F/B ratio (abundance ratio of Firmicutes to Bacteroidetes) ([5]; FIG. 7A, high-fat diet rats vs HF group): decrease | effect on B. thetaiotaomicron in the intestines [5, 8]: most significant | intestinal abundance of Dubosiella newyorkensis [5, 8]: increase | bacterial abundance of Bifidobacteriales in the intestine [5, 9]: increased | intestinal abundance of Verrucomicrobiales [5, 9]: increased | abundance of Eubacteriales ([5]; order level, FIG. 8, HF group 50.14%, high-fat diet rats, Monascinol (MSol, 3 mg/day), 8 weeks): 43.21% | abundance of Bacteroidetes [5, 10]: increase | abundance of Firmicutes [5, 10]: decrease | abundance of A. muciniphila ([5]; species level, FIG. 7F, high-fat diet-induced obesity rats): increased | Liver Weight/Body Weight [6]: 3.28 ± 0.37^b % | Liver weight [6]: 16.84 2.31^b g | Fat/body weight ([7]; body fat percentage): 3.35 ± 0.55^b % | Fat weight ([7]; perirenal and epididymal fat): 17.95 3.55^b g
